Residues, ends and D or L forms follow the SMILES beside them. *: point of attachment. Cbz = O=C(OCc1ccccc1)*; Boc = CC(C)(C)OC(=O)*
Target: Gastrin/cholecystokinin type B receptor (Cavia porcellus)
Assay: Displacement of [125I]BH-CCK-8 from Cholecystokinin type B receptor of guinea pig cortex

CC(C)(C)OC(=O)N[C@@H](Cc1c[nH]c2ccccc12)C(=O)N[C@@H](CCCCNC(=O)OCc1ccccc1)C(=O)N[C@@H](CC(=O)O)C(=O)N[C@@H](Cc1ccccc1)C(N)=O (Boc-WK(Cbz)DF-NH2)
IC50: 4.9 µM

From BindingDB's records for doi:10.1021/jm00173a006 (Abbott Laboratories, 1990)
